# Peptide text beside a SMILES is read from it.
# Legend:
# T. gondii tachyzoites [1] = assay: Trypan blue staining (exclusion) assay, killing of tachyzoites; assay type: cell-based, Toxoplasma gondii; conditions: 10 μM peptide, 2 h incubation with T. gondii, optical microscope, Fig. 2A
# Method: When T. gondii died, trypan blue was able to cross its cell membrane and enter the interior, making it blue. Trypan blue exclusion test was undertaken as mentioned before. Firstly, 10 μM different XYP1-derived peptides were prepared, incubated with T. gondii for 2 h, and then the trypan blue dye was added. After 3–5 min, the survival rate of T. gondii was observed by optical microscope and the mortality rate was calculated.
# T. gondii tachyzoites [2] = assay: Transmission electron microscopy of tachyzoite internal structure; assay type: cell-based, Toxoplasma gondii; conditions: 10 μM peptide, 2 h; Fig. 5
# Method: TEM steps mainly include fixing, rinsing, dehydration, infiltration, embedding, etc. After the T. gondii samples were fixed in 4% glutaraldehyde, they were washed with a cacodylate buffer, and 1% osmium tetroxide was used to fix the sample at 4 ℃ for 2 h. The fixed samples were then washed and subjected to a series of gradient dewatering treatments before being embedded in epoxy resin and polymerized at 60 ℃. After polymerization, the sample was sliced and double stained. Finally, the internal structure of T. gondii tachyzoites treated with different polypeptides was observed by TEM (Tecnai G2 Spirit TWIN, USA).
# CCK-8 cytotoxicity assay = assay type: cell-based; conditions: human; CCK-8, HFFs, 24 h with peptide then 2 h with CCK-8, OD540; Fig. 3C
# Method: […] After 24 h, 10 μL CCK-8 solution (APExBIO, USA) was added and incubated for another 2 h. The OD540 value was then measured and the cell mortality was calculated.
# [3] = test system: tachyzoites of RH-GFP-TgAtg8 T. gondii strain; assay: Fluorescence microscopy killing assay with RH-GFP-TgAtg8 tachyzoites; assay type: cell-based, Toxoplasma gondii; conditions: for fluorescence area and intensity of RH-GFP-TgAtg8 tachyzoites vs control: 10 μM peptide, 2 h incubation, fluorescence microscopy, Fig. 2C, D; for concentration dependence of killing effect (fluorescence area and intensity): 5 μM, 10 μM, 20 μM, room temperature, 2 h, Fig. 3A, B
# Method: To explore the concentration dependence of the polypeptides against T. gondii, XYP1-derived peptide solutions with different concentration gradients (5 μM, 10 μM, 20 μM) were prepared and then mixed with T. gondii tachyzoites at room temperature. After incubation for 2 h, the anti-T. gondii effect was observed by fluorescence microscopy.
# [4] = test system: T. gondii RH strain tachyzoites; assay: Mouse survival assay after T. gondii RH infection; assay type: in vivo; conditions: mice i.p. 1000 RH strain tachyzoites; for effect on survival time of infected mice (in words): peptide after 4 h, 4 mg/kg, Fig. 3E; for survival of infected mice prolonged to: peptide injected after 4 h, 4 mg/kg (legend; method says 4 mg/mL), control group all died at 127.1 h
# Method: The anti-T. gondii effect of peptides in vivo was investigated through a mouse survival experiment. The experiment was divided into a PBS control group and different polypeptide groups. Each group of mice was intraperitoneally injected with 1000 RH strain tachyzoites. After 4 h, the pre-prepared 4 mg/mL peptides were injected into the mice. The survival time of mice in each group was recorded and analyzed statistically.
# human red blood cells = assay: Hemolysis assay; assay type: cell-based; conditions: 1% human red blood cells in PBS, 37 ℃, 30 min, OD540
# Method: The hemolytic activity of peptides was determined by the amount of hemoglobin released from lysed human red blood cells. Normal human blood was mixed 1:1 with Aldrin’s fluid, followed by centrifuging, and phosphate buffered saline (PBS) was added to make 1% red blood cell resuspension. The 50 μL resuspension was mixed with 50 μL PBS, 1% Triton X-100, 70% DMSO (Sigma, USA), and different concentrations of polypeptides, then incubated at 37 ℃ for 30 min. After centrifugation, the OD540 value of the supernatant was measured by Microplate reader (Agilent, USA) and the hemolysis rate was calculated.
# IL-17 = assay: qRT-PCR of IL-17 transcription; assay type: cell-based, human; conditions: qPCR, XYP1 treatment group vs control; Fig. 7F
# Method: (§1) The control group consisted of HFF cells infected with T. gondii without XYP1, and the experimental group was treated with XYP1 for 8 h. Total RNAs were extracted from the control and experimental groups and reverse to cDNA, with three replicates per group. After the steps of end repair, A-tailing, and adapter ligation, the samples were proceeded with polymerase chain reaction (PCR) amplification and Illumina transcriptome sequencing in the OE biotech Co., Ltd. (Shanghai, China). Trimmomatic software was used to filter the raw data to obtain high-quality data information. Subsequently, the filtered data was aligned and assembled using HISAT2 [30] and StringTie tool. The number of reads mapped to each gene in each sample was calculated.
# (§2) The total RNAs from different samples were extracted using the classical Trizol method. The PerfectStart Uni RT&qPCR Kit (TransGen Biotech, China) was used to efficiently reverse transcribe RNA into cDNA and synthesize the first strand. The qRT-PCR reaction system contains cDNA temple, forward and reverse primers, double stranded DNA fluorescent dye (SYBR Green I), DNA polymerase, dNTP and buffer. The PCR reaction was performed using a two-step amplification procedure: 94 ℃ for 30 s (pre-denaturation) followed by 40 cycles of 94 ℃ for 5 s and 60 ℃ for 30 s. Finally, the relative expression of each gene was calculated by 2^−∆∆Cq method.
# TP53 = assay: qRT-PCR of TP53 transcription; assay type: cell-based, human; conditions: qPCR, XYP1 treatment group vs control; Fig. 7G
# Method: as §1, §2
# NF-kB = assay: qRT-PCR of NF-kB transcription; assay type: cell-based, human; conditions: qPCR, XYP1 treatment group vs control; Fig. 7H
# Method: as §1, §2
# T. gondii tachyzoites [5] = conditions: 10 μM XYP1; previous study; cited from earlier work
# Method: Therefore, trypan blue staining assay was used to compare the killing activity in vitro of 10 μM different derived peptides and XYP1.
Structure (SMILES),"anti-T. gondii killing activity (toxoplasma mortality, trypan blue) (T. gondii tachyzoites [1])",damage of internal structure of tachyzoites (TEM) (T. gondii tachyzoites [2]),IC50 at 24 h (CCK-8 cytotoxicity assay) [µM],fluorescence area and intensity of RH-GFP-TgAtg8 tachyzoites vs control [3],effect on survival time of infected mice (in words) [4],survival of infected mice prolonged to [4] [h],hemolysis at 1.25 μM to 80 μM (human red blood cells; 1.25 μM to 80 μM),hemolysis at the highest concentration (160 μM) (human red blood cells; 160 μM),concentration dependence of killing effect (fluorescence area and intensity) [3],transcription level of IL-17 (IL-17),transcription level of TP53 (TP53),hemolysis at 1.25 μM to 10 μM (human red blood cells; 1.25 μM to 10 μM),transcription level of NF-kB (NF-kB),killing of T. gondii tachyzoites (T. gondii tachyzoites [5])
CC[C@H](C)[C@H](NC(=O)[C@H](CCCCN)NC(=O)[C@H](CCCCN)NC(=O)[C@H](C)NC(=O)[C@@H](NC(=O)[C@H](CCCCN)NC(=O)[C@H](CCCCN)NC(=O)[C@H](CCSC)NC(=O)[C@H](CCCCN)NC(=O)[C@H](CCCCN)NC(=O)[C@H](Cc1ccccc1)NC(=O)[C@H](Cc1c[nH]c2ccccc12)NC(=O)[C@H](CCCCN)NC(=O)[C@H](CCCCN)NC(=O)[C@@H](N)CC(C)C)[C@@H](C)CC)C(=O)N[C@@H](C)C(=O)N[C@@H](CCCCN)C(=O)N[C@@H](CC(C)C)C(=O)O [XYP1-18-1] (H-LKKWFKKMKKIAKKIAKL-OH; N-terminus and C-terminus assumed),good anti-T. gondii activity,"shrinkage and vacuolization, but also complete dissolution of the tachyzoites observed",45.6,significantly reduced compared with the control group,poor effect on prolonging the survival time of mice,145,,,,,,,,
CC[C@H](C)[C@H](NC(=O)[C@H](Cc1ccccc1)NC(=O)[C@H](CCCCN)NC(=O)[C@H](C)NC(=O)[C@@H](NC(=O)[C@H](CO)NC(=O)[C@H](CCCCN)NC(=O)[C@H](CCSC)NC(=O)[C@H](C)NC(=O)[C@H](CCCCN)NC(=O)[C@H](Cc1ccccc1)NC(=O)[C@H](Cc1c[nH]c2ccccc12)NC(=O)[C@H](CCCCN)NC(=O)[C@@H](NC(=O)[C@@H](N)CCCCN)[C@@H](C)CC)[C@@H](C)CC)C(=O)N[C@@H](C)C(=O)N[C@@H](CCCCN)C(=O)N[C@@H](CC(=O)O)C(=O)O [XYP1-18] (H-KIKWFKAMKSIAKFIAKD-OH; N-terminus and C-terminus assumed),comparable to XYP1,"severe deformation and rupture of the surface membrane, but also serious shrinkage and vacuolization internally",80.6,significantly reduced compared with the control group,no significant difference between XYP1-18 and XYP1,191,almost no hemolysis,only minor hemolysis,statistically different,,,,,
CC[C@H](C)[C@H](NC(=O)[C@H](Cc1ccccc1)NC(=O)[C@H](CCCCN)NC(=O)[C@H](C)NC(=O)[C@@H](NC(=O)[C@H](CO)NC(=O)[C@H](CCCCN)NC(=O)[C@H](CCSC)NC(=O)[C@H](C)NC(=O)[C@H](CCCCN)NC(=O)[C@H](Cc1ccccc1)NC(=O)[C@H](Cc1c[nH]c2ccccc12)NC(=O)[C@H](CCCCN)NC(=O)[C@@H](NC(=O)[C@@H](N)CCCCN)[C@@H](C)CC)[C@@H](C)CC)C(=O)N[C@@H](C)C(=O)N[C@@H](CCCCN)C(=O)N[C@@H](CC(=O)O)C(=O)N[C@@H](CCC(N)=O)C(=O)N[C@@H](CC(C)C)C(=O)N[C@@H](CCCCN)C(=O)N[C@@H](CCCCN)C(=O)N[C@@H](Cc1c[nH]cn1)C(=O)N[C@@H](CC(C)C)C(=O)O [XYP1] (H-KIKWFKAMKSIAKFIAKDQLKKHL-OH; N-terminus and C-terminus assumed),consistent with the previous findings,"ruptures in the surface membrane, but also different degrees of vacuolization internally",33.6,,,208.5,,,statistically different,down-regulated,down-regulated,almost no hemolysis reaction was observed,up-regulated,can kill T. gondii tachyzoites

# — paper PMC11373213, “Anti-Toxoplasma gondii effects of XYP1-derived peptides and regulatory mechanisms of XYP1” (Parasites & Vectors, 2024)
